The values that follow come from ChEMBL document CHEMBL1135212, “Evolution, synthesis and SAR of tripeptide alpha-ketoacid inhibitors of the hepatitis C virus NS3/NS4A serine protease” (Bioorg Med Chem Lett, 2002).

SMILES strings stand for the structures. Square brackets hold non-standard residues; d marks the D form. Peptide text beside a SMILES is read from it. Dip = N[C@H](C(=O)O)C(c1ccccc1)c1ccccc1; Abu(4,4-F2) = N[C@@H](CC(F)F)C(=O)O; Cha = N[C@@H](CC1CCCCC1)C(=O)O

Genome polyprotein, sequence (P26664 1027-1657 limits assumed): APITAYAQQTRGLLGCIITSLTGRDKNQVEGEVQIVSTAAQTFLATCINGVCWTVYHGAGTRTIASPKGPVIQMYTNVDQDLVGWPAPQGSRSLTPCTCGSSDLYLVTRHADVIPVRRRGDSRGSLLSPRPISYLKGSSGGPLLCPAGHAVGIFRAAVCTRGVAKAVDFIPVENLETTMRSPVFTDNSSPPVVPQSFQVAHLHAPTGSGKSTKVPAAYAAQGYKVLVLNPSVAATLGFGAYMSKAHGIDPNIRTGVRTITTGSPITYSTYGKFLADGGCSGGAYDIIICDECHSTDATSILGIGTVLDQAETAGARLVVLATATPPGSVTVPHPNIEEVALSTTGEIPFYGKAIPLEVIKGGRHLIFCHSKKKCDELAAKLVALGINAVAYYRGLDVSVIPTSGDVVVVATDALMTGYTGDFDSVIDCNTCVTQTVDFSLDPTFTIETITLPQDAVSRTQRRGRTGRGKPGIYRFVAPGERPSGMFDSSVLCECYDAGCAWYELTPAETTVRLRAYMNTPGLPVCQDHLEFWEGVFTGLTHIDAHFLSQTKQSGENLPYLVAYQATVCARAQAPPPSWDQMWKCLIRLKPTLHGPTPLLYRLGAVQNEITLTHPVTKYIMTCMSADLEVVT
Genome polyprotein, sequence (P26664 1658-1711 limits assumed): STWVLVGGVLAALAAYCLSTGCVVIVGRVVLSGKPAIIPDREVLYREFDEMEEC

One test addresses Genome polyprotein (Hepatitis C virus genotype 1a (isolate 1) (HCV), UniProt P26664). The test can be described thus: Inhibition to hepatitis C virus (HCV) NS3/NS4A serine protease.
Regarding `CC[C@H](C)[C@H](NC(=O)OC(C)(C)C)C(=O)N[C@@H](CC(C)C)C(=O)N[C@@H](CC(F)F)C(=O)C(=O)O`, the IC50 was determined as 1 µM.
`CCC(C)[C@H](NC(=O)OCc1ccccc1)C(=O)N[C@H](C(=O)N[C@@H](CC(F)F)C(=O)C(=O)O)C(C)C` (stereo partly drawn) gave a half-maximal inhibitory concentration (IC50) of 16 µM.
Still for that read-out and setting: in the case of `CC(C)(C)OC(=O)N[C@@H](CCC(=O)O)C(=O)N[C@@H](CC(F)F)C(=O)N[C@@H](CC(F)F)C(=O)C(=O)O` it was 0.3 µM; in that of `CCC(C)[C@H](NC(=O)OCc1ccccc1)C(=O)N[C@@H](CC(C)C)C(=O)N[C@@H](CC(F)F)C(O)C(=O)O` (stereo partly drawn), > 50 µM; in that of `CC(C)C[C@H](NC(=O)[C@H](C)NC(=O)OC(C)(C)C)C(=O)N[C@@H](CC(F)F)C(=O)C(=O)O`, 8.9 µM.
With `CCC(C)[C@H](NC(=O)OCc1ccc(C(=O)O)cc1)C(=O)N[C@@H](CC(C)C)C(=O)N[C@@H](CC(F)F)C(=O)C(=O)O` (stereo partly drawn), 0.44 µM corresponded to half-maximal inhibition (IC50).
`CCC(C)[C@H](NC(=O)NCc1ccccc1)C(=O)N[C@@H](CC(C)C)C(=O)N[C@@H](CC(F)F)C(=O)C(=O)O` (stereo partly drawn) yielded a 50% inhibitory concentration (IC50) of 3.3 µM.
The same measure, in the same setting: in the case of `CCC(C)[C@H](NC(=O)OCc1ccc(C(=O)OC)cc1)C(=O)N[C@@H](CC(C)C)C(=O)N[C@@H](CC(F)F)C(=O)C(=O)O` (stereo partly drawn) it was 1.7 µM; in that of `CC(C)C[C@H](NC(=O)[C@@H](NC(=O)OC(C)(C)C)C1CCCC1)C(=O)N[C@@H](CC(F)F)C(=O)C(=O)O`, 0.38 µM; in that of `CC[C@H](C)[C@H](NC(=O)OCc1ccccc1)C(=O)N[C@@H](CC(C)C)C(=O)N[C@@H](CC(F)F)C(=O)C(=O)O`, 1.7 µM.
The same measure, in the same setting: with `CC(=O)N[C@H](C(=O)[C@H](CCC(=O)O)N[C@@H](CC1CCCCC1)C(=O)N[C@@H](CC(F)F)C(=O)C(=O)O)C(c1ccccc1)c1ccccc1` the figure was 5.3 µM; with `CC[C@H](C)[C@H](NC(=O)OCc1ccccc1)C(=O)N[C@@H](CC1CCCCC1)C(=O)N[C@@H](CC(F)F)C(=O)C(=O)O`, 1.4 µM.
The same measure, in the same setting: in the case of `CC[C@H](NC(=O)[C@@H](NC(=O)OCc1ccccc1)[C@@H](C)CC)C(=O)N[C@@H](CC(F)F)C(=O)C(=O)O` it was 3.28 µM.
Compound `CC[C@H](C)[C@H](NC(C)=O)C(=O)N[C@@H](CC(C)C)C(=O)N[C@@H](CC(F)F)C(=O)C(=O)O` had an IC50 of 16 µM.
Still for that read-out and setting: in the case of `CC(C)C[C@H](NC(=O)[C@H](CC(=O)O)NC(=O)OC(C)(C)C)C(=O)N[C@@H](CC(F)F)C(=O)C(=O)O` it was 1.63 µM; in that of `CC(C)C[C@H](NC(=O)[C@H](CCC(=O)O)NC(=O)OC(C)(C)C)C(=O)N[C@@H](CC(F)F)C(=O)C(=O)O`, 0.33 µM; in that of `CC(C)C[C@H](NC(=O)[C@@H](NC(=O)OC(C)(C)C)C(C)C)C(=O)N[C@@H](CC(F)F)C(=O)C(=O)O`, 0.46 µM.
With `CCC(C)[C@H](NC(=O)OCc1ccccc1)C(=O)N[C@@H](CC(C)C)C(=O)N[C@@H](CC(F)F)C(=O)C(=O)OC` (stereo partly drawn), the half-maximal inhibitory concentration (IC50) is > 50 µM.
As to `CC(=O)N[C@H](C(=O)[C@H](CCC(=O)O)N[C@@H](CC1CCCCC1)C(=O)N[C@@H](CC(F)F)C(=O)O)C(c1ccccc1)c1ccccc1`, the IC50 is > 50 µM.
Same read-out and setting: in the case of `CC[C@H](C)[C@H](NC(=O)OCc1ccccc1)C(=O)NCC(=O)N[C@@H](CC(F)F)C(=O)C(=O)O` it was > 100 µM.
On the same count and under the same terms, in the case of `CC[C@H](C)[C@H](NC(=O)OCc1ccccc1)C(=O)N[C@@H](CC(C)C)C(=O)N[C@H](C=O)CC(F)F` it was > 50 µM.
In turn, `CC(C)C[C@H](NC(=O)[C@H](CCC(N)=O)NC(=O)OC(C)(C)C)C(=O)N[C@@H](CC(F)F)C(=O)C(=O)O` returned a 50% inhibitory concentration (IC50) of 2.1 µM.
In the case of `CC[C@H](C)[C@H](NC(=O)OCc1ccccc1)C(=O)N[C@@H](C)C(=O)N[C@@H](CC(F)F)C(=O)C(=O)O`, the half-maximal inhibitory concentration (IC50) was 15.6 µM.
`CC(=O)N[C@H](C(=O)[C@H](CCC(=O)O)N[C@@H](CC1CCCCC1)C(=O)N[C@H](C=O)CC(F)F)C(c1ccccc1)c1ccccc1`: the IC50 is > 50 µM.
Same read-out and setting: in the case of `CCC(C)[C@H](NC(=O)OCc1ccccc1)C(=O)N[C@@H](Cc1ccccc1)C(=O)N[C@@H](CC(F)F)C(=O)C(=O)O` (stereo partly drawn) it was 9.4 µM; in that of `CCC(C)[C@H](NC(=O)OCc1ccccc1)C(=O)N[C@@H](CC(C)C)C(=O)N[C@H](CC(=O)O)CC(F)F` (stereo partly drawn), > 50 µM; in that of `CC[C@H](C)[C@H](NC(=O)OCc1ccccc1)C(=O)N[C@@H](CC(C)C)C(=O)N[C@@H](CC(F)F)C(=O)c1nnn[nH]1`, > 50 µM.

Another test deals with Hepatitis C virus serine protease, NS3/NS4A (Hepatitis C virus, UniProt A3EZI9+D2K2A8). The experiment in a line: Inhibitory activity against hepatitis C virus (HCV) NS3/NS4A serine protease. In kind it is protein-complex assay, Hepacivirus hominis.
Hepatitis C virus serine protease, NS3/NS4A, sequence (D2K2A8 whole entry): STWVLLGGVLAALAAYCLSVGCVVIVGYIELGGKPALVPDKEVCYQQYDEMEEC
Hepatitis C virus serine protease, NS3/NS4A, sequence (A3EZI9 whole entry): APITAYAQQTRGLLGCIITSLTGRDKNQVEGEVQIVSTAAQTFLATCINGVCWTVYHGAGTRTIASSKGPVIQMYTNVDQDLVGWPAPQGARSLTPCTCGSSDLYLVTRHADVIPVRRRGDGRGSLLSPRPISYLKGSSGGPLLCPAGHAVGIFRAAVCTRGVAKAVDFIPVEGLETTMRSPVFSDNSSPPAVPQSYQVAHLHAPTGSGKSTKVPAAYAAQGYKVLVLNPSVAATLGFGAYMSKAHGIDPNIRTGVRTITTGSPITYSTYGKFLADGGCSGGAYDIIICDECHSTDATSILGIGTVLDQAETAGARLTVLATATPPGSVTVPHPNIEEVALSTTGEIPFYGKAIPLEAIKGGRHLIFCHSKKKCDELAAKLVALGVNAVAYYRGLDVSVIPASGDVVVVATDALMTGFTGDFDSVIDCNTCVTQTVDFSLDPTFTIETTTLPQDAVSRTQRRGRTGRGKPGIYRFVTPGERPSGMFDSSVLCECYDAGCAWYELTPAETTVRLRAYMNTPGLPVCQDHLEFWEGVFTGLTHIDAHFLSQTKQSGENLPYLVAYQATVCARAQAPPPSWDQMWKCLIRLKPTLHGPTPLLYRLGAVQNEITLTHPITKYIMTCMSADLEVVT
In turn, `CC(=O)N[C@@H](CC(=O)O)C(=O)N[C@@H](CCC(=O)O)C(=O)N[C@H](C(=O)N[C@@H](CCC(=O)O)C(=O)N[C@@H](CC1CCCCC1)C(=O)N[C@@H](CC(F)F)C(=O)O)C(c1ccccc1)c1ccccc1` (Ac-DE[Dip]E[Cha][Abu(4,4-F2)]-OH) displayed an inhibition constant Ki of 0.04 µM.
